Where two headings read alike, the source gives them in different places.
Key:
glandular kallikrein = glandular kallikrein (Sus scrofa, UniProt P00752); assay: inhibition of glandular kallikrein, dissociation constant Ki
factor XIIa = target: T1, factor XIIa (Homo sapiens, UniProt P00748); assay: inhibition of factor XIIa, dissociation constant Ki
T1 sequence (P00748 373-615 limits assumed): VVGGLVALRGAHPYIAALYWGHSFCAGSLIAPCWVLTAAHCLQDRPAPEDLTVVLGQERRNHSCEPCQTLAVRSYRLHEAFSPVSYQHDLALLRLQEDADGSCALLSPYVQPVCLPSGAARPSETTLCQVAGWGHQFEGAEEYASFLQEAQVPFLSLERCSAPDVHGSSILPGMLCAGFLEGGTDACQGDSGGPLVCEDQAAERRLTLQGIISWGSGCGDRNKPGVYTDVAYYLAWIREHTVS

tPA = tPA (Homo sapiens, UniProt P00750); assay: inhibition of tPA, dissociation constant Ki
plasmin = plasmin (Homo sapiens, UniProt P00747); assay: inhibition of plasmin, dissociation constant Ki
plasma kallikrein = plasma kallikrein (Homo sapiens, UniProt P03952); assay: inhibition of plasma kallikrein, dissociation constant Ki
factor Xa = factor Xa (Bos taurus, UniProt P00743); assay: inhibition of factor Xa, dissociation constant Ki; type: biochemical; settings: Table 1
Description: (§1) The biological activity of the compounds of the present invention was determined in vitro as well as in vivo.

trypsin = target: T2, trypsin (Bos taurus, UniProt P00760); assay: inhibition of trypsin, dissociation constant Ki; type: biochemical; set-up: thrombin and the related enzymes trypsin, plasmin, factor Xa, factor XIIa; settings: Table 1; read-out: Ki, Trypsin
T2 sequence (P00760 24-246): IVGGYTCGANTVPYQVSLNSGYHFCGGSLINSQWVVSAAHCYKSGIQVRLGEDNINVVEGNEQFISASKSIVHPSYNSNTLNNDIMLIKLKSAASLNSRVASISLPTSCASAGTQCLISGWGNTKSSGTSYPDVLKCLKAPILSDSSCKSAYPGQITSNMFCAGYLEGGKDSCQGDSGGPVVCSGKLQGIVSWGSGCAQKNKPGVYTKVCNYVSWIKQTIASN
Description: as §1

thrombin [1] = target: T3, thrombin (Bos taurus, UniProt P00735); assay: biochemical
thrombin [2] = target: T3, thrombin; settings: read-out: Ki, Thrombin

plasmin, sequence (P00747 581-810 limits assumed): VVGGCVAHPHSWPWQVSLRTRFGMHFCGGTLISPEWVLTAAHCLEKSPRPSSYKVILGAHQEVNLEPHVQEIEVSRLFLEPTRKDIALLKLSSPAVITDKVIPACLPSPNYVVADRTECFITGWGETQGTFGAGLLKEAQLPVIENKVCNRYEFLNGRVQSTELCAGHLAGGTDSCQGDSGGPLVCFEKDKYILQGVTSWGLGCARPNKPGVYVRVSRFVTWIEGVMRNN
plasmin, sequence (P00747 97-580 partner limits assumed): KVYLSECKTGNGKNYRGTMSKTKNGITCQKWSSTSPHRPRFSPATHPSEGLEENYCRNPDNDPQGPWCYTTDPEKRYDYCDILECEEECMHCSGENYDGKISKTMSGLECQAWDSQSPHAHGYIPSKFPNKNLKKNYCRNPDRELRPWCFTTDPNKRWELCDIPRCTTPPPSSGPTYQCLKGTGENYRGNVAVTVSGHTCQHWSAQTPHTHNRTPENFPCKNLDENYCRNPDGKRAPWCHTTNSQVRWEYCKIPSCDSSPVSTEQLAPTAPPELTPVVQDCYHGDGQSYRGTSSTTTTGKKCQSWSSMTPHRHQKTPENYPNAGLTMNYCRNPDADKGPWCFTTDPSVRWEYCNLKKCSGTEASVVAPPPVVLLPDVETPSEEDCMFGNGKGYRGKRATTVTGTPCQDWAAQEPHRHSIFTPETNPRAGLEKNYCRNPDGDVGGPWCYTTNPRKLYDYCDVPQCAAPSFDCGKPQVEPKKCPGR
plasma kallikrein, sequence (P03952 391-638 limits assumed, species assumed): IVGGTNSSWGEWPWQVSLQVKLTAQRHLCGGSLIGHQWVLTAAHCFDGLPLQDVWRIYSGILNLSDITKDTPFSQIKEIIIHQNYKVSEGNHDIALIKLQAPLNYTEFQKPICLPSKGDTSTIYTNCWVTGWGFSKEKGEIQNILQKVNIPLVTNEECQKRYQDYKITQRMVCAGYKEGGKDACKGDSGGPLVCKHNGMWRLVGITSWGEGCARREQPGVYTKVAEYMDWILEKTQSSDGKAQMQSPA
plasma kallikrein, sequence (P03952 20-390 partner limits assumed, species assumed): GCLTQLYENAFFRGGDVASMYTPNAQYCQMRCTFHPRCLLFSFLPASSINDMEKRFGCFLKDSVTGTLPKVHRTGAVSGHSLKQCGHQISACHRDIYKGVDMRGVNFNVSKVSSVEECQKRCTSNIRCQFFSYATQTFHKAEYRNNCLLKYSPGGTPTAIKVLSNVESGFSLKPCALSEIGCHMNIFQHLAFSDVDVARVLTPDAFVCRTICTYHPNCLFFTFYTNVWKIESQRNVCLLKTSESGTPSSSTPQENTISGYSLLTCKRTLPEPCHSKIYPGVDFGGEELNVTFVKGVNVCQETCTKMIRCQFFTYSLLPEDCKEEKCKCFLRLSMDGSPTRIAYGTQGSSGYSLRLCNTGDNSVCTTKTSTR
tPA, sequence (P00750 36-562): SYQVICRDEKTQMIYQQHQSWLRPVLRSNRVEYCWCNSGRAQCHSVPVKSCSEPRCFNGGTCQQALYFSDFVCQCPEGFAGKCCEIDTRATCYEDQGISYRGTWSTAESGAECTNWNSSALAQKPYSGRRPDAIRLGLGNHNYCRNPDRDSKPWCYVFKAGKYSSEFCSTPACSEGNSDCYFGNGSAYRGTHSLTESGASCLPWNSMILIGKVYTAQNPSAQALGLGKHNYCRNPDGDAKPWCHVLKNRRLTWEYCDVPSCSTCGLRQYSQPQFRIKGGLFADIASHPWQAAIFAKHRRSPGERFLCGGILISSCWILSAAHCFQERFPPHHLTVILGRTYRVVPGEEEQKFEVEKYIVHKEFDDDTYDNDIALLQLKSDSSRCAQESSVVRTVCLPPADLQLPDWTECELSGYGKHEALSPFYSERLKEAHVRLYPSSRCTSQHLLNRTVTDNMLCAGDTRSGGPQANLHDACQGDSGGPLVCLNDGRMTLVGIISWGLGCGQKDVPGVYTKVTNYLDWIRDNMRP
glandular kallikrein, sequence (P00752 8-246): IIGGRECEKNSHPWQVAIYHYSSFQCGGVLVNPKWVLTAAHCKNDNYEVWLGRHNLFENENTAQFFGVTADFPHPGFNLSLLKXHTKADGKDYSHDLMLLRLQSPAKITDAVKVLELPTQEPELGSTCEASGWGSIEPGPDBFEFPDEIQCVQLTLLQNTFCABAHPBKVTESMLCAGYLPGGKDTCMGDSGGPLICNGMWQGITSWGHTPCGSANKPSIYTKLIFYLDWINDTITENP
factor Xa, sequence (P00743 234-492 limits assumed): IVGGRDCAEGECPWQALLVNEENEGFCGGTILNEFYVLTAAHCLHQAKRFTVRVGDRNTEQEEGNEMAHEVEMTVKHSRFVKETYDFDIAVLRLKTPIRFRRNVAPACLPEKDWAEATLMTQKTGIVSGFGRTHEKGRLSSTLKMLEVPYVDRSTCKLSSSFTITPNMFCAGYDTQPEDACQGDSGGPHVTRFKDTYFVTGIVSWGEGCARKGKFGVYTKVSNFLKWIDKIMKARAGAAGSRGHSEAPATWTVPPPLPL
factor Xa, sequence (P00743 41-180 partner limits assumed): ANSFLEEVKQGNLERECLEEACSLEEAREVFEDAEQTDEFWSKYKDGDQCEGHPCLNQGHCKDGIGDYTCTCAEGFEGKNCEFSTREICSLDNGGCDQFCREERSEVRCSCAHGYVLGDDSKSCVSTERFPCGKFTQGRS

Ki (glandular kallikrein)	Ki (factor XIIa)	Ki (tPA)	Ki (plasma kallikrein)	Ki (factor Xa)	Ki (trypsin)	Ki (plasmin)	Ki (thrombin [1])	SMILES	Ki (plasmin; read-out: Ki, Plasmin, Table 1)	Ki (factor XIIa; Ki, Factor XIIa, Table 1)	Ki (thrombin [2])	Ki (thrombin [2]; Table 1)
> 1000 µM	540 µM	170 µM	22 µM	45 µM	0.044 µM	5.1 µM	0.14 µM	N=C(N)c1cccc(CC(NS(=O)(=O)c2ccc3ccccc3c2)C(=O)N2CCN(C(=O)C3CC3)CC2)c1 (stereo not drawn) [AMD 2-Naph CO-cPr]				
760 µM	420 µM	670 µM	44 µM	150 µM	0.6 µM	11.5 µM	0.074 µM	CC(=O)N1CCN(C(=O)C(Cc2cccc(C(=N)N)c2)NS(=O)(=O)c2c(C)c(C)c3c(c2C)CCC(C)(C)O3)CC1 (stereo not drawn) [AMD Pmc Ac]				
200 µM	47 µM	17 µM	7.3 µM	4 µM	0.22 µM		0.098 µM	CC(=O)N1CCN(C(=O)C(Cc2cccc(C(=N)N)c2)NS(=O)(=O)c2c(C(C)C)cc(C(C)C)cc2C(C)C)CC1 (stereo not drawn) [AMD TIPP Ac]	3 µM			
> 1000 µM	> 1000 µM	> 1000 µM	56 µM		0.026 µM	7.6 µM	2.5 µM	N=C(N)c1cccc(CC(NS(=O)(=O)c2ccc3ccccc3c2)C(=O)N2CCN(C(=O)C3CCC3)CC2)c1 (stereo not drawn) [AMD 2-Naph CO-cBu]				
> 1000 µM	42 µM	120 µM	3.6 µM		0.073 µM		0.011 µM	N=C(N)c1cccc(C[C@H](NS(=O)(=O)c2ccc3ccccc3c2)C(=O)N2CCN(C=O)CC2)c1 [AMD(L) 2-Naph For]				
> 1000 µM	> 1000 µM	> 1000 µM	94 µM	130 µM	0.53 µM	26 µM	24 µM	NCc1cccc(CC(NS(=O)(=O)c2ccc3ccccc3c2)C(=O)N2CCN(c3ccccn3)CC2)c1 (stereo not drawn) [Ame 2-Naph 2-Pyl]				
> 1000 µM	> 1000 µM	> 1000 µM	180 µM	91 µM	3.3 µM	48 µM	0.059 µM	Cc1c(C)c(S(=O)(=O)NC(Cc2cccc(C(=N)N)c2)C(=O)N2CCN(CCO)CC2)c(C)c2c1OC(C)(C)CC2 (stereo not drawn) [AMD Pmc EtOH]				
> 1000 µM	7.6 µM	> 1000 µM	6.9 µM	25 µM	1.5 µM	37 µM	0.05 µM	COc1cc(C)c(S(=O)(=O)N2CCN(C(=O)C(Cc3cccc(C(=N)N)c3)NS(=O)(=O)c3ccc4ccccc4c3)CC2)c(C)c1C (stereo not drawn) [AMD 2-Naph SO2 -Mtr]				
> 1000 µM	74 µM	> 1000 µM	16 µM	16 µM	0.066 µM	6.2 µM	1.3 µM	COCC(=O)N1CCN(C(=O)C(Cc2cccc(C(=N)N)c2)NS(=O)(=O)c2ccc3ccccc3c2)CC1 (stereo not drawn) [AMD 2-Naph COCH2 OMe]				

The remaining lines, values behind:

SMILES	Ki (glandular kallikrein)	Ki (factor XIIa)	Ki (tPA)	Ki (plasma kallikrein)	Ki (factor Xa)	Ki (trypsin)	Ki (plasmin)	Ki (thrombin [1])	Ki (plasmin; read-out: Ki, Plasmin, Table 1)	Ki (factor XIIa; Ki, Factor XIIa, Table 1)	Ki (thrombin [2])	Ki (thrombin [2]; Table 1)
N=C(N)c1cccc(CC(NS(=O)(=O)c2ccc3ccccc3c2)C(=O)N2CCN(C(=O)C3CCCCC3)CC2)c1 (stereo not drawn) [AMD 2-Naph CO-cHex]	> 1000 µM	350 µM	> 1000 µM	79 µM					10.2 µM			
Cc1c(C)c(S(=O)(=O)NC(Cc2cccc(C(=N)N)c2)C(=O)N2CCN(C(=O)N(C)C)CC2)c(C)c2c1OC(C)(C)CC2 (stereo not drawn) [AMD Pmc CO-N(Me)2]	> 1000 µM	> 1000 µM	> 1000 µM	93 µM	26 µM	0.58 µM	13 µM	0.033 µM				
N=C(N)c1cccc(CC(NS(=O)(=O)c2ccc3ccccc3c2)C(=O)N2CCN(CCO)CC2)c1 (stereo not drawn) [AMD 2-Naph EtOH]	> 1000 µM		> 1000 µM	74 µM	35 µM				42 µM	> 1000 µM	0.058 µM	
N=C(N)c1cccc(CC(NS(=O)(=O)c2ccc3ccccc3c2)C(=O)N2CCN(C(=O)Cc3cccs3)CC2)c1 (stereo not drawn) [AMD 2-Naph drawing 11]	> 1000 µM	72 µM	170 µM	19 µM	16 µM	0.081 µM	2.7 µM	2.5 µM				
CS(=O)(=O)N1CCN(C(=O)C(Cc2cccc(C(=N)N)c2)NS(=O)(=O)c2ccc3ccccc3c2)CC1 (stereo not drawn) [AMD 2-Naph SO2 Me]	> 1000 µM	86 µM	> 1000 µM	77 µM	22 µM				12 µM			
CCS(=O)(=O)N1CCN(C(=O)C(Cc2cccc(C(=N)N)c2)NS(=O)(=O)c2ccc3ccccc3c2)CC1 (stereo not drawn) [AMD 2-Naph SO2 Et]	> 1000 µM	212 µM	820 µM	58 µM	24 µM				3.5 µM			0.044 µM
N=C(N)c1cccc(CC(NS(=O)(=O)c2ccc3ccccc3c2)C(=O)N2CCN(S(=O)(=O)c3ccccc3)CC2)c1 (stereo not drawn) [AMD 2-Naph SO2 -Ph]	> 1000 µM	120 µM	> 1000 µM	36 µM	24 µM				19 µM			0.041 µM
Cc1ccc(S(=O)(=O)N2CCN(C(=O)C(Cc3cccc(C(=N)N)c3)NS(=O)(=O)c3ccc4ccccc4c3)CC2)cc1 (stereo not drawn) [AMD 2-Naph SO2 -Tol]	> 1000 µM	> 1000 µM	> 1000 µM	30 µM	24 µM				15 µM			0.022 µM
Cc1c(C)c(S(=O)(=O)NC(Cc2cccc(C(=N)N)c2)C(=O)N2CCN(S(C)(=O)=O)CC2)c(C)c2c1OC(C)(C)CC2 (stereo not drawn) [AMD Pmc SO2 Me]	> 1000 µM	140 µM	> 1000 µM	140 µM	75 µM							0.0074 µM
Cc1cc(C)c(S(=O)(=O)N2CCN(C(=O)C(Cc3cccc(C(=N)N)c3)NS(=O)(=O)c3ccc4ccccc4c3)CC2)c(C)c1 (stereo not drawn) [AMD 2-Naph SO2 -TMeP]	> 1000 µM	690 µM	> 1000 µM	1 µM	13 µM	0.59 µM	31 µM	0.075 µM				
COc1cc(C)c(S(=O)(=O)NC(Cc2cccc(C(=N)N)c2)C(=O)N2CCN(S(C)(=O)=O)CC2)c(C)c1C (stereo not drawn) [AMD Mtr SO2 Me]	> 1000 µM	630 µM	> 1000 µM	150 µM	120 µM				18 µM			0.032 µM
CCCCCC(=O)N1CCN(C(=O)C(Cc2cccc(C(=N)N)c2)NS(=O)(=O)c2ccc3ccccc3c2)CC1 (stereo not drawn) [AMD 2-Naph CO(CH2)4 CH3]	> 1000 µM	270 µM	> 1000 µM	23 µM	19 µM				2.6 µM			6.5 µM
N=C(N)c1cccc(CC(NS(=O)(=O)c2ccc3ccccc3c2)C(=O)N2CCN(S(=O)(=O)c3ccc4ccccc4c3)CC2)c1 (stereo not drawn) [AMD 2-Naph SO2-2-Naph]	> 1000 µM	90 µM	> 1000 µM	22 µM	25 µM				11 µM			0.024 µM
N=C(N)c1cccc(CC(NS(=O)(=O)c2ccc3c(c2)C(=O)c2ccccc2C3=O)C(=O)N2CCN(C=O)CC2)c1 (stereo not drawn) [AMD AC For]	> 1000 µM	7.2 µM	84 µM	11 µM	1.7 µM	0.033 µM	13 µM	0.031 µM				
N=C(N)c1cccc(CC(NS(=O)(=O)c2ccc3ccccc3c2)C(=O)N2CCN(C=O)CC2)c1 (stereo not drawn) [AMD 2-Naph For]	440 µM	83 µM	> 1000 µM	16 µM	19 µM				6.3 µM		0.037 µM	
N=C(N)c1cccc(CC(NS(=O)(=O)c2ccc3ccccc3c2)C(=O)N2CCN(c3ccccn3)CC2)c1 (stereo not drawn) [AMD 2-Naph 2-Pyl]	> 1000 µM	84 µM	> 1000 µM	19 µM	12 µM	0.035 µM	3.3 µM	0.52 µM				
CC(C)C(=O)N1CCN(C(=O)C(Cc2cccc(C(=N)N)c2)NS(=O)(=O)c2ccc3ccccc3c2)CC1 (stereo not drawn) [AMD 2-Naph COCH(Me)2]	> 1000 µM	> 1000 µM	440 µM	50 µM	84 µM	0.063 µM	9.3 µM	0.26 µM				
N=C(N)c1cccc(CC(NS(=O)(=O)c2ccc3ccccc3c2)C(=O)N2CCN(c3ncccn3)CC2)c1 (stereo not drawn) [AMD 2-Naph 2-Pym]	> 1000 µM	100 µM	320 µM	19 µM	14 µM	0.061 µM	3.3 µM	1.8 µM				
